Numbered stars: 1 amine (or outer) side, 2 acyl side, 3 side chain; on linkers, the order of the positions; unused ones are H or OH. Bridge positions count the residues as written; N and C are the ends. Square brackets hold non-standard residues; d marks the D form. Peptide text beside a SMILES is read from it. * marks the point of attachment. TtdsdLys(DOTA)NH2 = NC(=O)[C@@H](CCCCNC(=O)CN1CCN(CC(=O)O)CCN(CC(=O)O)CCN(CC(=O)O)CC1)NC(=O)CCC(=O)NCCCOCCOCCOCCCN*; DOTA = O=C(O)CN1CCN(CC(=O)O)CCN(CC(=O)*)CCN(CC(=O)O)CC1; Phe(4-Cl) = N[C@@H](Cc1ccc(Cl)cc1)C(=O)O; Phe(4-F) = N[C@@H](Cc1ccc(F)cc1)C(=O)O; Arg(Me) = CNC(=N)NCCC[C@H](N)C(=O)O; 3Pal = N[C@@H](Cc1cccnc1)C(=O)O; X1 = O=C(CC1CCN([*:1])CC1)[*:2]; Cit = NC(=O)NCCC[C@H](N)C(=O)O; Lys(Me) = CNCCCC[C@H](N)C(=O)O; Tle = CC(C)(C)[C@H](N)C(=O)O; Isovaleryl = CC(C)CC(=O)*; Nle = CCCC[C@H](N)C(=O)O; Hexanoyl = CCCCCC(=O)*; Aib = CC(C)(N)C(=O)O; GABA = NCCCC(=O)O
Key:
[1] = molecular target: T1, Fc-fusion protein of human PSMA (hPSMA-Fc) (Homo sapiens, UniProt Q04609); assay: Surface plasmon resonance assay (Biacore T200, single cycle kinetic); type: binding; settings: PSMA SPR assay, hPSMA-Fc, 25° C.; pKD category; read-out: pKD CAT (converted)
T1 construct: purchased Acro Biosystems PSA-H5264
T1 sequence (Q04609 44-750 limits assumed): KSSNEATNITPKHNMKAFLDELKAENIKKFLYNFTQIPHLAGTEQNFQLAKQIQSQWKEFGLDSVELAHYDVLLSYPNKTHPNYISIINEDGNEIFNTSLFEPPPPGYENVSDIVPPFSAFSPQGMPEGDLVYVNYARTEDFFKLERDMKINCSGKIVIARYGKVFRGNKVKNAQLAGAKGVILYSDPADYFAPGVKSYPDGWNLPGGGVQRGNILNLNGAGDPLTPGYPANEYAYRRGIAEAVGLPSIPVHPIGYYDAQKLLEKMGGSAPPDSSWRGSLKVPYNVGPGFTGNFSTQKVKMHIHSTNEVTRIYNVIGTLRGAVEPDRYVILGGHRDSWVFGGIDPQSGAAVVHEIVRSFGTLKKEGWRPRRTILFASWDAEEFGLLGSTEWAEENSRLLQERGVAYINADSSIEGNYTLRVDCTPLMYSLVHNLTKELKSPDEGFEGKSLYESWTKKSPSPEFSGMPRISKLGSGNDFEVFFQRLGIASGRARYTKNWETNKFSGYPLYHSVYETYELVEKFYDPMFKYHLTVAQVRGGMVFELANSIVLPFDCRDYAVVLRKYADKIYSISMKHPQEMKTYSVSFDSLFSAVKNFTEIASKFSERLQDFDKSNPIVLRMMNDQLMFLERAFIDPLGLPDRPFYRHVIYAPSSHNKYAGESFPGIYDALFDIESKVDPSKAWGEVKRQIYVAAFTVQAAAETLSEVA
How it was run: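 KD, expressed as pKD, came from 1:1 Langmuir fits of reference- and buffer-blank-subtracted SPR data. The runs were single-cycle kinetics at 25° C in HBST/0.1% DMSO over human PSMA-Fc, captured to ~1000 RU on a peptide-coated CM5 surface and regenerated with 10 mM glycine pH 1.5.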

[2] = molecular target: T2, PSMA-expressing C4-2 cells (Homo sapiens, UniProt Q04609); assay: FACS binding assay (competition with 50 nM PSM-0183); settings: FACS binding, PSMA-expressing C4-2 cells; pIC50 category; read-out: pIC50 [C4-2] CAT (converted)
T2 construct: PSMA-expressing C4-2 cells (ATCC, Cat. No. CRL-3314) were cultured in RPMI-1640; host or cells: C4-2 cells
T2 sequence (Q04609 whole entry): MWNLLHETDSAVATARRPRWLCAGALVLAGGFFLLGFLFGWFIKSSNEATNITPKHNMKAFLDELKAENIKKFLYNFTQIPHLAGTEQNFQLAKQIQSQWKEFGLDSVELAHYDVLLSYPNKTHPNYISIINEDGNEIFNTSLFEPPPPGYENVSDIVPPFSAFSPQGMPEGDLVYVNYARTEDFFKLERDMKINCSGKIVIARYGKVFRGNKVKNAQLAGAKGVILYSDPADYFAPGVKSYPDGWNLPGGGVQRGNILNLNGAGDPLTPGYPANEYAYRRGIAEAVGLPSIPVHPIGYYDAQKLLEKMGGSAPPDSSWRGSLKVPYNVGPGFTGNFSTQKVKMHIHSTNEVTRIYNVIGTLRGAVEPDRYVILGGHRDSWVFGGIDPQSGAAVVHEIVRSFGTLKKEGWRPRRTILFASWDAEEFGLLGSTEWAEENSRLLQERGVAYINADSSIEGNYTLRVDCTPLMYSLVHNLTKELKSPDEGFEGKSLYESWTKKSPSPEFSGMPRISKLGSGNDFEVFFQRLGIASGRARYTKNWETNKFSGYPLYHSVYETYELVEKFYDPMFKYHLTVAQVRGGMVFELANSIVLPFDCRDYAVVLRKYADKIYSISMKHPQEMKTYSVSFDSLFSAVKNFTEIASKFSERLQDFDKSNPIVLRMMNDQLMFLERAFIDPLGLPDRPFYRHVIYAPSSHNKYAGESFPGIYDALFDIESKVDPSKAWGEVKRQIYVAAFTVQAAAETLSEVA
How it was run: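 Competition format: fluorescent tracer PSM-0183 (50 nM) displaced from PSMA on C4-2 cells by a test compound titration over 1 h at 4 °C. Bound tracer was quantified as flow-cytometric AF488 median fluorescence after washing. Four-parameter logistic fits of MFI data gave IC50 and pIC50.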

| SMILES | Kd [1] | IC50 [2] |
| --- | --- | --- |
| CCCC[C@H](NC(=O)[C@@H]1CSSC[C@H](NC(=O)[C@H](Cc2ccccc2)NC(=O)[C@H](C)NC(=O)[C@@H](NC(C)=O)[C@@H](C)O)C(=O)N[C@@H](CCCCN)C(=O)N[C@@H](CCCNC(=N)N)C(=O)N[C@@H](C)C(=O)N[C@@H](CC(N)=O)C(=O)N1)C(=O)N[C@H](C(=O)N[C@@H](CC(=O)O)C(N)=O)[C@@H](C)O [PSM-0287, Ac-Thr-Ala-Phe-[Cys-Lys-Arg-Ala-Asn-Cys]-Nle-Thr-Asp-NH2] | 12.6 to 126 nM | < 200 nM |
| CCCCCC(=O)N[C@H](C(=O)NC(C)(C)C(=O)N[C@@H](Cc1ccccc1)C(=O)N[C@H]1CSSC[C@@H](C(=O)N[C@H](C(=O)N[C@H](C(=O)NCCCOCCOCCOCCCNC(=O)CCC(=O)N[C@H](CCCCNC(=O)CN2CCN(CC(=O)O)CCN(CC(=O)O)CCN(CC(=O)O)CC2)C(N)=O)[C@@H](C)O)C(C)(C)C)NC(=O)[C@H](CC(N)=O)NC(=O)C(C)(C)NC(=O)[C@H](CCC(N)=O)NC(=O)[C@H](CCCCN)NC1=O)[C@@H](C)O [PSM-0289, Hex-Thr-Aib-Pho-[Cys-Lys-Gln-Aib-Asn-Cys]-Tle-Thr-Ttds-lys(DOTA)-NH2] (Hexanoyl-T[Aib]FCKQ[Aib]NC[Tle]T-{TtdsdLys(DOTA)NH2}; disulfide 4-9) | 12.6 to 126 nM | 200 to 1260 nM |
| C[C@@H](O)[C@H](NC(=O)[C@@H](NC(=O)[C@@H]1CSSC[C@H](NC(=O)[C@H](Cc2ccc(Cl)cc2)NC(=O)C(C)(C)NC(=O)CN2CCN(CC(=O)O)CCN(CC(=O)O)CCN(CC(=O)O)CC2)C(=O)N[C@@H](CCCCN)C(=O)N[C@@H](CCCNC(=N)N)C(=O)NC(C)(C)C(=O)N[C@@H](CC(N)=O)C(=O)N1)C(C)(C)C)C(N)=O [PSM-0290, DOTA-Aib-Pcf-[Cys-Lys-Arg-Aib-Asn-Cys]-Tle-Thr-NH2] ({DOTA}-[Aib][Phe(4-Cl)]CKR[Aib]NC[Tle]T-NH2; disulfide 3-8) | > 501 nM | > 3160 nM |
| CC(C)CC(=O)NC(C)(C)C(=O)N[C@@H](Cc1ccccc1)C(=O)N[C@H]1CSSC[C@@H](C(=O)N[C@H](C(=O)N[C@H](C(=O)N[C@H](CCCCNC(=O)CN2CCN(CC(=O)O)CCN(CC(=O)O)CCN(CC(=O)O)CC2)C(N)=O)[C@@H](C)O)C(C)(C)C)NC(=O)[C@H](CC(N)=O)NC(=O)C(C)(C)NC(=O)[C@H](CCCNC(=N)N)NC(=O)[C@H](CCCCN)NC1=O [PSM-0292, Iva-Aib-Phe-[Cys-Lys-Arg-Aib-Asn-Cys]-Tle-Thr-lys(DOTA)-NH2] (Isovaleryl-[Aib]FCKR[Aib]NC[Tle]T[dK](DOTA)-NH2; disulfide 3-8) | 12.6 to 126 nM | < 200 nM |
| CC(=O)N[C@H](C(=O)NC(C)(C)C(=O)N[C@@H](Cc1ccccc1)C(=O)N[C@H]1CSSC[C@@H](C(=O)N[C@H](C(=O)N[C@H](C(=O)N[C@@H](CC(=O)O)C(=O)NCCCOCCOCCOCCCNC(=O)CCC(=O)N[C@H](CCCCNC(=O)CN2CCN(CC(=O)O)CCN(CC(=O)O)CCN(CC(=O)O)CC2)C(N)=O)[C@@H](C)O)C(C)(C)C)NC(=O)[C@H](CC(N)=O)NC(=O)[C@H](C)NC(=O)[C@H](CCCNC(=N)N)NC(=O)[C@H](CCCCN)NC1=O)[C@@H](C)O [PSM-0295, Ac-Thr-Aib-Phe-[Cys-Lys-Arg-Ala-Asn-Cys]-Tle-Thr-Asp-Ttds-lys(DOTA)-NH2] (Ac-T[Aib]FCKRANC[Tle]TD-{TtdsdLys(DOTA)NH2}; disulfide 4-9) | < 12.6 nM | < 200 nM |
| CC(=O)NC(=N)NCCC[C@@H]1NC(=O)[C@H](CCCCN)NC(=O)[C@@H](NC(=O)[C@H](Cc2ccc(Cl)cc2)NC(=O)C(C)(C)NC(C)=O)CSSC[C@@H](C(=O)N[C@H](C(=O)N[C@H](C(=O)N2CCC(CC(=O)N[C@H](CCCCNC(=O)CN3CCN(CC(=O)O)CCN(CC(=O)O)CCN(CC(=O)O)CC3)C(N)=O)CC2)[C@@H](C)O)C(C)(C)C)NC(=O)[C@H](CC(N)=O)NC(=O)C(C)(C)NC1=O [PSM-0298, Ac-Aib-Pcf-[Cys-Lys-Arg(Ac)-Aib-Asn-Cys]-Tle-Thr-Cmp-lys(DOTA)-NH2] (Ac-[Aib][Phe(4-Cl)]CKR(Ac)[Aib]NC[Tle]T[X1][dK](DOTA)-NH2; disulfide 3-8) | 12.6 to 126 nM | 200 to 1260 nM |

Second part, the compound after the results:

| Kd [1] | IC50 [2] | SMILES |
| --- | --- | --- |
| > 501 nM | > 3160 nM | CCCC[C@H](NC(=O)[C@@H]1CSSC[C@H](NC(=O)[C@H](Cc2ccccc2)NC(=O)[C@H](C)NC(=O)[C@@H](NC(C)=O)[C@@H](C)O)C(=O)N[C@@H](CCCCN)C(=O)N[C@@H](CCCNC(=N)N)C(=O)N[C@@H](C)C(=O)N2CCC[C@H]2C(=O)N1)C(=O)N[C@H](C(=O)N[C@@H](CC(=O)O)C(N)=O)[C@@H](C)O [PSM-0286, Ac-Thr-Ala-Phe-[Cys-Lys-Arg-Ala-Pro-Cys]-Nle-Thr-Asp-NH2] (Ac-TAFCKRAPC[Nle]TD-NH2; disulfide 4-9) |
| < 12.6 nM | < 200 nM | CC(=O)N[C@H](C(=O)NC(C)(C)C(=O)N[C@@H](Cc1ccccc1)C(=O)N[C@H]1CSSC[C@@H](C(=O)N[C@H](C(=O)N[C@H](C(=O)N[C@H](CCCCNC(=O)CN2CCN(CC(=O)O)CCN(CC(=O)O)CCN(CC(=O)O)CC2)C(N)=O)[C@@H](C)O)C(C)(C)C)NC(=O)[C@H](CC(N)=O)NC(=O)C(C)(C)NC(=O)[C@H](CCCNC(=N)N)NC(=O)[C@H](CCCCN)NC1=O)[C@@H](C)O [PSM-0288, Ac-Thr-Aib-Phe-[Cys-Lys-Arg-Aib-Asn-Cys]-Tle-Thr-lys(DOTA)-NH2] (Ac-T[Aib]FCKR[Aib]NC[Tle]T[dK](DOTA)-NH2; disulfide 4-9) |
| > 501 nM | 1260 to 3160 nM | CC(=O)N[C@H](C(=O)NC(C)(C)C(=O)N[C@@H](Cc1ccccc1)C(=O)N[C@H]1CSSC[C@@H](C(=O)N[C@H](C(=O)N[C@H](C(=O)N[C@@H](CC(=O)O)C(N)=O)[C@@H](C)O)C(C)(C)C)NC(=O)[C@H](CC(N)=O)NC(=O)[C@H](C)NC(=O)[C@H](CCCNC(=N)N)NC(=O)[C@H](CCC(=O)O)NC1=O)[C@@H](C)O [PSM-0291, Ac-Thr-Aib-Phe-[Cys-Glu-Arg-Ala-Asn-Cys]-Tle-Thr-Asp-NH2] (Ac-T[Aib]FCERANC[Tle]TD-NH2; disulfide 4-9) |
| < 12.6 nM | < 200 nM | CC(=O)N[C@H](C(=O)NC(C)(C)C(=O)N[C@@H](Cc1ccc(Cl)cc1)C(=O)N[C@H]1CSSC[C@@H](C(=O)N[C@H](C(=O)N[C@H](C(N)=O)[C@@H](C)O)C(C)(C)C)NC(=O)[C@H](CO)NC(=O)C(C)(C)NC(=O)[C@H](CCCNC(N)=O)NC(=O)[C@H](CCCCN)NC1=O)[C@@H](C)O [PSM-0293, Ac-Thr-Aib-Pcf-[Cys-Lys-Cit-Aib-Ser-Cys]-Tle-Thr-NH2] (Ac-T[Aib][Phe(4-Cl)]CK[Cit][Aib]SC[Tle]T-NH2; disulfide 4-9) |
| < 12.6 nM | < 200 nM | CC(=O)N[C@H](C(=O)NC(C)(C)C(=O)N[C@@H](Cc1ccc(F)cc1)C(=O)N[C@H]1CSSC[C@@H](C(=O)N[C@H](C(=O)N[C@H](C(N)=O)[C@@H](C)O)C(C)(C)C)NC(=O)[C@H](CC(N)=O)NC(=O)C(C)(C)NC(=O)[C@H](CCCNC(=N)N)NC(=O)[C@H](CCCCN)NC1=O)[C@@H](C)O [PSM-0294, Ac-Thr-Aib-Pff-[Cys-Lys-Arg-Aib-Asn-Cys]-Tle-Thr-NH2] (Ac-T[Aib][Phe(4-F)]CKR[Aib]NC[Tle]T-NH2; disulfide 4-9) |
| 126 to 501 nM | 200 to 1260 nM | CNCCCC[C@@H]1NC(=O)[C@@H](NC(=O)[C@H](Cc2cccnc2)NC(=O)C(C)(C)NC(=O)[C@@H](NC(=O)CC2CCN(C(=O)CN3CCN(CC(=O)O)CCN(CC(=O)O)CCN(CC(=O)O)CC3)CC2)[C@@H](C)O)CSSC[C@@H](C(=O)N[C@H](C(=O)N[C@H](C(N)=O)[C@@H](C)O)C(C)(C)C)NC(=O)[C@H](CC(N)=O)NC(=O)C(C)(C)NC(=O)[C@H](CCCNC(=N)NC)NC1=O [PSM-0296, DOTA-Cmp-Thr-Aib-Mpa-[Cys-Lys(Me)-Arg(Me)-Aib-Asn-Cys]-Tle-Thr-NH2] ({DOTA}-[X1]T[Aib][3Pal]C[Lys(Me)][Arg(Me)][Aib]NC[Tle]T-NH2; disulfide 5-10) |
| < 12.6 nM | < 200 nM | CC(=O)N[C@H](C(=O)NC(C)(C)C(=O)N[C@@H](Cc1ccccc1)C(=O)N[C@H]1CSSC[C@@H](C(=O)N[C@H](C(=O)NCCCC(N)=O)C(C)(C)C)NC(=O)[C@H](CC(N)=O)NC(=O)C(C)(C)NC(=O)[C@H](CCCNC(=N)N)NC(=O)[C@H](CCCCN)NC1=O)[C@@H](C)O [PSM-0297, Ac-Thr-Aib-Pho-[Cys-Lys-Arg-Aib-Asn-Cys]-Tle-Gab-NH2] (Ac-T[Aib]FCKR[Aib]NC[Tle][GABA]-NH2; disulfide 4-9) |
| 12.6 to 126 nM | 1260 to 3160 nM | CC(=O)N[C@@H](C)C(=O)N[C@@H](Cc1ccccc1)C(=O)N[C@H]1CSSC[C@@H](C(=O)N[C@@H](CC(C)C)C(=O)N[C@H](C(=O)N[C@@H](CC(=O)O)C(=O)NCCCOCCOCCOCCCNC(=O)CCC(=O)N[C@H](CCCCNC(=O)CN2CCN(CC(=O)O)CCN(CC(=O)O)CCN(CC(=O)O)CC2)C(N)=O)[C@@H](C)O)NC(=O)[C@H](CC(N)=O)NC(=O)[C@H](C)NC(=O)[C@H](CCCNC(=N)N)NC(=O)[C@H](CCCCN)NC1=O [PSM-0299, Ac-Ala-Phe-[Cys-Lys-Arg-Ala-Asn-Cys]-Leu-Thr-Asp-Ttds-lys(DOTA)-NH2] (Ac-AFCKRANCLTD-{TtdsdLys(DOTA)NH2}; disulfide 3-8) |
| < 12.6 nM | < 200 nM | CC(=O)N[C@H](C(=O)NC(C)(C)C(=O)N[C@@H](Cc1ccccc1)C(=O)N[C@H]1CSSC[C@@H](C(=O)N[C@H](C(=O)O)C(C)(C)C)NC(=O)[C@H](CC(N)=O)NC(=O)C(C)(C)NC(=O)[C@H](CCCNC(=N)N)NC(=O)[C@H](CCCCN)NC1=O)[C@@H](C)O [PSM-0300, Ac-Thr-Aib-Phe-[Cys-Lys-Arg-Aib-Asn-Cys]-Tle-OH] (Ac-T[Aib]FCKR[Aib]NC[Tle]-OH; disulfide 4-9) |
